Laboratory results: US12582722B2, “Bifunctional compounds for degrading BTK via ubiquitin proteosome pathway” (NURIX THERAPEUTICS, INC., priority 2019, dated 2026)

target: T1, BTK (Homo sapiens, UniProt Q06187); experiment: Cellular BTK HTRF Assay (BTK degradation in Ramos cells); assay type: cell-based; settings: four hours incubation, 37° C., BTK levels relative to DMSO-treated cells
T1 construct: endogenous in cells; host or cells: Ramos (ATCC CRL-1596)
Method: Ramos (CRL-1596) cells were obtained from American Type Culture Collection and were grown in RPMI-1640 media (ATCC, 30-2001) supplemented with 10% heat-inactivated FBS (Corning Premium Fetal Bovine Serum from Fisher, MT35015CV).
Compounds of the present invention were added to 50,000 Ramos cells in round-bottom 96 well plates with a final DMSO concentration of […] and were incubated at 37° C., 5% CO2 for four hours. BTK levels were determined using Cisbio Total-BTK HTRF ([…] Time-Resolved Fluorescence) kit (63ADK064PEG) according to manufacturer's protocol. Briefly, cells were incubated in 1× supplied lysis buffer for 30 minutes. In an opaque white low volume 96 well plate (Cisbio, 66PL96005), cell lysate was combined with two different specific BTK antibodies, one conjugated with Eu^3+-Cryptate FRET donor and one conjugated with d2 FRET acceptor. Assay controls include wells containing cell lysate with only the Eu^3+-Cryptate FRET donor antibody and wells containing both HTRF antibodies and lysis buffer without cells or control lysate provided by Cisbio. HTRF ratio was calculated as (acceptor signal at 665 nm/donor signal at 620 nm)×10^4. Background HTRF levels were determined from the control well containing the donor, but no acceptor, antibody. Background HTRF levels were subtracted from all samples. Readouts were reported as HTRF levels relative to HTRF levels of DMSO-treated cells. Four-parameter non-linear regressions were performed in GraphPad Prism 7.02 to obtain DC50 values. DC50 values are provided in Table 3, wherein A<7.5 nM, 7.5 nM≤B≤50 nM, and 50 nM<C<500 nM.

T1 sequence (Q06187 whole entry): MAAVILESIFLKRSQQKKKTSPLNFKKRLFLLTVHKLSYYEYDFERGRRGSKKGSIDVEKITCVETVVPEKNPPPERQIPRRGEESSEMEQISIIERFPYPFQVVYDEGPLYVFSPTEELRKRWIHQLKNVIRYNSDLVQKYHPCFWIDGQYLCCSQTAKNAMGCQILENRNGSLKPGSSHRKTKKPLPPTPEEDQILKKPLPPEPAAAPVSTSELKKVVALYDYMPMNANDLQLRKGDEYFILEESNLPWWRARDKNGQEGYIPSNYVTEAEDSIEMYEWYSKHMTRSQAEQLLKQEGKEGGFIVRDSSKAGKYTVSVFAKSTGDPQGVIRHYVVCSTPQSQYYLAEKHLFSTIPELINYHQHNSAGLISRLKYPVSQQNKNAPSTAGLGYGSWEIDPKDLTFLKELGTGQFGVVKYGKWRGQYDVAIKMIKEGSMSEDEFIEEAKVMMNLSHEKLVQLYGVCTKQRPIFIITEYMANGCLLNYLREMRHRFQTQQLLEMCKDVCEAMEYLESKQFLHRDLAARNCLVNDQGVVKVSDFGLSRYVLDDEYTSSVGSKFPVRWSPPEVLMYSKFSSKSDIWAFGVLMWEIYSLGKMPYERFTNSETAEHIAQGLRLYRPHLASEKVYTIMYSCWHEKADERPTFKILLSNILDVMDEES

| DC50 [nM] | Structure (SMILES) |
| --- | --- |
| < 7.5 | Cc1cc(Nc2nc(N3CCC[C@@H](NC(=O)C4CCN(C5CCN(c6ccc7c(c6)C(=O)N(C6CCC(=O)NC6=O)C7=O)CC5)CC4)C3)cnc2C(N)=O)sn1 (stereo partly drawn) [Compound 39, N—((R)-1-(5-carbamoyl-6-((3-methylisothiazol-5-yl)amino)pyrazin-2-yl)piperidin-3-yl)-1′-(2-(2,6-dioxopiperidin-3-yl)-1,3-dioxoisoindolin-5-yl)-[1,4′-bipiperidine]-4-carboxamide] |
| 50 to 500 | CS(=O)(=O)c1ccc(Nc2nc(N3CCC[C@@H](NC(=O)C4CCN(C5CCN(c6ccc7c(c6)C(=O)N(C6CCC(=O)NC6=O)C7=O)CC5)CC4)C3)cnc2C(N)=O)cc1 (stereo partly drawn) [Compound 40, N—((R)-1-(5-carbamoyl-6-((4-(methylsulfonyl)phenyl)amino)pyrazin-2-yl)piperidin-3-yl)-1′-(2-(2,6-dioxopiperidin-3-yl)-1,3-dioxoisoindolin-5-yl)-[1,4′-bipiperidine]-4-carboxamide] |
| 50 to 500 | CS(=O)(=O)c1ccc(Nc2nc(N3CCC[C@@H](NC(=O)C4CC5CCC(C4)N5C4CCN(c5ccc6c(c5)C(=O)N(C5CCC(=O)NC5=O)C6=O)CC4)C3)cnc2C(N)=O)cc1 (stereo partly drawn) [Compound 41, N-[(3R)-1-{5-carbamoyl-6-[(4-methanesulfonylphenyl)amino]pyrazin-2-yl}piperidin-3-yl]-8-{1-[2-(2,6-dioxopiperidin-3-yl)-1,3-dioxoisoindol-5-yl]piperidin-4-yl}-8-azabicyclo[3.2.1]octane-3-carboxamide] |
| 7.5 to 50 | CS(=O)(=O)c1ccc(Nc2nc(N3CCC[C@@H](NC(=O)[C@H]4CCN(CC5CCN(c6ccc7c(c6)C(=O)N(C6CCC(=O)NC6=O)C7=O)CC5)C4)C3)cnc2C(N)=O)cc1 (stereo partly drawn) [Compound 46, 5-[(3R)-3-[1-({1-[2-(2,6-dioxopiperidin-3-yl)-1,3-dioxoisoindol-5-yl]piperidin-4-yl}methyl)pyrrolidine-3-amido]piperidin-1-yl]-3-[(4-methanesulfonylphenyl)amino]pyrazine-2-carboxamide] |

More lines, now with the values behind:

| Structure (SMILES) | DC50 [nM] |
| --- | --- |
| Cc1cc(Nc2nc(N3CCC[C@@H](NC(=O)C4CCN(C5CN(c6ccc7c(c6)C(=O)N(C6CCC(=O)NC6=O)C7=O)C5)CC4)C3)cnc2C(N)=O)sn1 (stereo partly drawn) [Compound 38, 5-((3R)-3-(1-(1-(2-(2,6-dioxopiperidin-3-yl)-1,3-dioxoisoindolin-5-yl)azetidin-3-yl)piperidine-4-carboxamido)piperidin-1-yl)-3-((3-methylisothiazol-5-yl)amino)pyrazine-2-carboxamide] | 7.5 to 50 |
| Cn1cc(Nc2nc(N3CCC[C@@H](N4CC5(CN(CC6CN(c7ccc8c(c7)C(=O)N(C7CCC(=O)NC7=O)C8=O)C6)C5)OC4=O)C3)cnc2C(N)=O)cn1 (stereo partly drawn) [Compound 42, 5-((3R)-3-(2-((1-(2-(2,6-dioxopiperidin-3-yl)-1,3-dioxoisoindolin-5-yl)azetidin-3-yl)methyl)-6-oxo-5-oxa-2,7-diazaspiro[3.4]octan-7-yl)piperidin-1-yl)-3-((1-methyl-1H-pyrazol-4-yl)amino)pyrazine-2-carboxamide] | < 7.5 |
| Cn1cc(Nc2nc(N3CCC[C@@H](N4CC5(CN(CC6CCN(c7ccc8c(c7)C(=O)N(C7CCC(=O)NC7=O)C8=O)CC6)C5)OC4=O)C3)cnc2C(N)=O)cn1 (stereo partly drawn) [Compound 43, 5-[(3R)-3-[2-({1-[2-(2,6-dioxopiperidin-3-yl)-1,3-dioxoisoindol-5-yl]piperidin-4-yl}methyl)-6-oxo-5-oxa-2,7-diazaspiro[3.4]octan-7-yl]piperidin-1-yl]-3-[(1-methylpyrazol-4-yl)amino]pyrazine-2-carboxamide] | < 7.5 |
| Cn1cc(Nc2nc(N3CCC[C@@H](N4CC5(CN(C6CCN(c7ccc8c(c7)C(=O)N(C7CCC(=O)NC7=O)C8=O)CC6)C5)OC4=O)C3)cnc2C(N)=O)cn1 (stereo partly drawn) [Compound 44, 5-[(3R)-3-(2-{1-[2-(2,6-dioxopiperidin-3-yl)-1,3-dioxoisoindol-5-yl]piperidin-4-yl}-6-oxo-5-oxa-2,7-diazaspiro[3.4]octan-7-yl)piperidin-1-yl]-3-[(1-methylpyrazol-4-yl)amino]pyrazine-2-carboxamide] | < 7.5 |
| CS(=O)(=O)c1ccc(Nc2nc(N3CCC[C@@H](NC(=O)CCOCCCc4cccc5c4CN(C4CCC(=O)NC4=O)C5=O)C3)cnc2C(N)=O)cc1 (stereo partly drawn) [Compound 47, 5-[(3R)-3-(3-{3-[2-(2,6-dioxopiperidin-3-yl)-1-oxo-3H-isoindol-4-yl]propoxy}propanamido)piperidin-1-yl]-3-[(4-methanesulfonylphenyl)amino] pyrazine-2-carboxamide] | 50 to 500 |
| Cn1cc(Nc2nc(N3CCC[C@@H](N4CCC5(CCN(CC6CCN(c7ccc8c(c7)C(=O)N(C7CCC(=O)NC7=O)C8=O)CC6)CC5)C4=O)C3)cnc2C(N)=O)cn1 (stereo partly drawn) [Compound 48, 5-[(3R)-3-[8-({1-[2-(2,6-dioxopiperidin-3-yl)-1,3-dioxoisoindol-5-yl]piperidin-4-yl}methyl)-1-oxo-2,8-diazaspiro[4.5]decan-2-yl]piperidin-1-yl]-3-[(1-methylpyrazol-4-yl)amino]pyrazine-2-carboxamide] | < 7.5 |
| Cn1cc(Nc2nc(N3CCC[C@@H](N4CCC5(CCN(C6CCN(c7ccc8c(c7)C(=O)N(C7CCC(=O)NC7=O)C8=O)CC6)CC5)C4=O)C3)cnc2C(N)=O)cn1 (stereo partly drawn) [Compound 49, 5-[(3R)-3-(8-{1-[2-(2,6-dioxopiperidin-3-yl)-1,3-dioxoisoindol-5-yl]piperidin-4-yl}-1-oxo-2,8-diazaspiro[4.5]decan-2-yl)piperidin-1-yl]-3-[(1-methylpyrazol-4-yl)amino]pyrazine-2-carboxamide] | < 7.5 |
| Cn1cc(Nc2nc(N3CCC[C@@H](N4CCC5(CCN(CC6CN(c7ccc8c(c7)C(=O)N(C7CCC(=O)NC7=O)C8=O)C6)CC5)C4=O)C3)cnc2C(N)=O)cn1 (stereo partly drawn) [Compound 50, 5-[(3R)-3-[8-({1-[2-(2,6-dioxopiperidin-3-yl)-1,3-dioxoisoindol-5-yl]azetidin-3-yl}methyl)-1-oxo-2,8-diazaspiro[4.5]decan-2-yl]piperidin-1-yl]-3-[(1-methylpyrazol-4-yl)amino]pyrazine-2-carboxamide] | < 7.5 |
